Reference: paper PMC6278385, “Preclinical Pharmacokinetics of C118P, a Novel Prodrug of Microtubules Inhibitor and Its Metabolite C118 in Mice, Rats, and Dogs” (Molecules, 2018)
Like-named read-outs stand apart in the source and are kept apart here. Values belong to the compound of their own block, whether it stands above or below them.

Tests used:
[1] = Tandem two-compartment PK model of C118P and C118; format: in vivo; conditions: dog; for K12 / K21 / V1: two-compartmental model parameter (Table S1); for K10: two-compartmental model, K10 supposed to be transformation rate of C118P into C118, simulated
Text: Due to the rapid transformation of C118P into C118, there is no direct way to calculate the rate of transformation, thus a two-compartment model with metabolism involved was developed (Figure S3). The transformation rate from C118P into C118 was simulated by fitting the two-serial data of prodrug C118P and C118 in rats and dogs.
3. The pharmacokinetic profile of C118P and C118 was simulated by two compartmental models. To simplify the model, the excretion rate of C118P from central compartment was supposed to be zero. In this model, both C118P and C118 were described by two-compartmental model, with elimination rate of k(0,3) for C118. The connection between C118P and C118 is by the uniflow of transformation rate of k(3,1) since the metabolism of C118P to C118 is irreversible(Figure S3).
Figure S3. The pharmacokinetic model of C118P and C118 in rat after i.v C118P. ex1: the injection dose of C118P, s1: concentration of C118 in central compartment. s2: concentration of C118 in central compartment, q1 and q3 represent the central compartment of C118P and C118, respectively.
The q2 and q4 represent the peripheral compartment of C118P and C118, respectively. k(0,3) represents the elimination rate of C118 from central compartment. k(3,1) represents the transformation rate of C118P to C118. k(2,1) and k(4,3) represent the distribution rate of C118P and C118 from central compartment to peripheral compartment. k(1,2) and k(3,4) represent the return rate of C118P and C118 from peripheral compartment to central compartment.
For prodrug pharmacokinetic prediction, the transformation of prodrug to the active drug should be studied in different system to get the right data. With the help of modeling, the transformation ratio of C118P to C118 was calculated by a tandem two-compartment model (SAAMII, University of Washington). In simulation study, the initial parameters are very important for accurate prediction.
The initial compartmental model parameters of rat and dog were first evaluated by Winnonlin using two-compartmental model at low dose, with intravenous for C118P and extra vessel for C118 since […]
(1 picture or pasted object on this page, not shown here)
C118 was transformed from C118P. The initial parameters used in the simulation were listed in Table S1. Using these parameters, the simulation of PK profiles of rat and dog are well fit to the data from in vivo at higher dose (Figure S4). The simulation of C118P and C118, the transformation rate of C118P to C118 is calculated and transformation ratio (k) is about 18.3671/h and12.588 1/h for rats and dogs, respectively.
Figure S4. The simulation of PK profile at 20 mg/kg in rat(A) and 6 mg/kg(B) in dog based on initial parameters calculated by Winnonlin. (s1 represent the simulated data for C118 and s2 represent the simulated data for C118P, plasma 1 represent the experimental data for C118 and plasma 2 represent the experimental data for C118P.) […]

[2] = Plasma protein binding by ultrafiltration; format: in vitro ADME; conditions: human plasma, read-out: fu (fraction unbound)
Description: (§1) Both C118P and C118 were stable in the plasma with EDTA as anticoagulant. The non-specific binding to the ultrafilter membrane was negligible. The extent of plasma protein binding was reported as a fraction unbound (fu, %) value which was calculated using the formula fu = PF/TC × 100%, where TC is test compound (C118P or C118) concentration in sample before ultrafiltration, and PF is the test compound concentration in the ultrafiltrate (Table 1).
(§2) Plasma protein binding of C118P and C118 were determined by ultrafiltration at four concentrations (C118P: 400, 4000, 40,000, and 400,000 ng/mL, C118: 20, 200, 2000, and 20,000 ng/mL) in pooled plasma from Sprague-Dawley rats, beagle dogs, and humans. Stock solutions of C118P and C118 dissolved in methanol were diluted with blank plasma to achieve the test concentrations (the methanol volume is less than 10% of the plasma). The plasma was incubated for 1 h in a water bath at 37 °C. The total concentration of C118P and C118 of spiked plasma (TC) was analyzed by previously described methods. Ultrafiltration was performed with activated high speed centrifugal tubes (Millipore, Burlington, MA, USA). Plasma samples (0.4 mL) were added to the upper layer of the high speed centrifugal tubes, and then centrifuged at 12,000 g for 10 min. The concentration of unbound C118P and C118 in filtrate (PF) was similarly determined by the previously described methods. The percentage of free fraction (fu) of C118P and C118 was calculated as follows: fu = (PF/TC) × 100%.

[3] = Plasma protein binding by ultrafiltration; format: in vitro ADME, Sprague-Dawley rats; conditions: Sprague-Dawley, rat plasma, read-out: fu (fraction unbound)
Description: as §1, §2

[4] = PK in dogs after i.v. C118P; format: in vivo, beagle dogs; conditions: plasma; for AUC(0-inf) / half-life / clearance / concentration at 2 min: both sexes, beagle, dog; for AUC(0-inf) / half-life / clearance: iv; for concentration at 2 min: read-out: C2min
Description: The beagle dogs were purchased from Nanjing Ya Dong experimental animal research center. Twelve beagle dogs with half males and half females were divided randomly into two groups. C118P was dissolved in saline to different concentrations for intravenous administration. After fasting overnight with free access to water, the dogs were administered a single intravenous dose of 1 or 3 mg/kg C118P. After a one-week wash-out period, the group of 1 mg/kg were administered another single intravenous dose of 6 mg/kg C118P. Blood samples (approximately 1 mL) were collected in EDTA-coated tubes at times of 0, 2, 5, 10, 20, 40 min, 1, 2, 4, 8, 12 and 24 h. Plasma was prepared by centrifugation at 8000 rpm for 5 min, and the plasma samples were then prepared and determined by the method described above.
The area under the plasma-concentration-versus-time curve from 0 to infinite (AUC0-inf), the elimination half-life (t1/2), the systemic plasma clearance (CL) and the volume of distribution (V) were calculated by non-compartmental analysis with WinNonlin software v6.3 (Pharsight Corporation, St. Louis, MO 63144, USA) from the plasma concentration data of C118P and C118, respectively. The instantaneous concentrations after intravenous to rats (C30s) or dogs (C2min) were obtained directly from the observed data.

[5] = in vivo, dogs, i.v. C118P 1 mg/kg, n = 6
[6] = in vivo, dogs, i.v. C118P 3 mg/kg, n = 6
[7] = in vivo, dogs, i.v. C118P 6 mg/kg, n = 6
[8] = dogs, i.v. C118P 1 mg/kg, n = 6
[9] = dogs, i.v. C118P 3 mg/kg, n = 6
[10] = dogs, i.v. C118P 6 mg/kg, n = 6
[11] = pooled plasma, C118 20,000 ng/mL

Compound: COc1cc(OC)cc(-c2nc[nH]c2-c2ccc(OC)c(OP(=O)([O-])[O-])c2)c1.[Na+].[Na+] [C118P]
- K12 [1]: 1.844 h⁻¹
- K21 [1]: 4.727 h⁻¹
- V1 [1]: 0.05097 L/kg
- K10 [1]: 12.558 h⁻¹
- fraction unbound at 1 h, 400 ng/mL ([2]; C118P 400 ng/mL): 0.022 ± 0.001
- fraction unbound at 1 h, 4000 ng/mL ([2]; C118P 4000 ng/mL): 0.027
- fraction unbound at 1 h, 40000 ng/mL ([2]; C118P 40,000 ng/mL): 0.022 ± 0.001
- fraction unbound at 1 h, 400000 ng/mL ([2]; C118P 400,000 ng/mL): 0.057 ± 0.004
- fraction unbound at 1 h, 400 ng/mL ([3]; C118P 400 ng/mL): 0.032 ± 0.001
- fraction unbound at 1 h, 4000 ng/mL ([3]; C118P 4000 ng/mL): 0.029 ± 0.001
- fraction unbound at 1 h, 40000 ng/mL ([3]; C118P 40,000 ng/mL): 0.024 ± 0.001
- fraction unbound at 1 h, 400000 ng/mL ([3]; C118P 400,000 ng/mL): 0.122 ± 0.006
- AUC(0-inf) [4, 5]: 1700 ± 346 ng·h/mL
- half-life [4, 5]: 13.2 ± 5.4 min
- clearance ([4]; in vivo, dogs, i.v. C118P 1 mg/kg, n = 6, read-out: CL (converted)): 10.2 mL/min/kg
- AUC(0-inf) [4, 6]: 5300 ± 1700 ng·h/mL
- half-life [4, 6]: 35.4 ± 9.6 min
- clearance ([4]; in vivo, dogs, i.v. C118P 3 mg/kg, n = 6, read-out: CL (converted)): 10.1 mL/min/kg
- AUC(0-inf) [4, 7]: 8530 ± 1550 ng·h/mL
- half-life [4, 7]: 23.4 ± 7.2 min
- clearance ([4]; in vivo, dogs, i.v. C118P 6 mg/kg, n = 6, read-out: CL (converted)): 12.1 mL/min/kg
- concentration at 2 min [4, 5]: 12300 ng/mL
- concentration at 2 min [4, 6]: 34700 ng/mL
- concentration at 2 min [4, 7]: 64200 ng/mL
- V [4, 8]: 0.1817 ± 0.0513 L/kg
- V [4, 9]: 0.5092 ± 0.162 L/kg
- V [4, 10]: 0.3985 ± 0.0871 L/kg

- K12 [1]: 1.3247 h⁻¹
- K21 [1]: 0.2110 h⁻¹
- V1 [1]: 0.2205 L/kg
- K10 [1]: 3.1444 h⁻¹
- fraction unbound at 1 h, 200 ng/mL ([2]; pooled plasma, C118 200 ng/mL): 0.028 ± 0.002
- fraction unbound at 1 h, 2000 ng/mL ([2]; pooled plasma, C118 2000 ng/mL): 0.047 ± 0.002
- fraction unbound at 1 h, 20000 ng/mL [2, 11]: 0.038 ± 0.002
- fraction unbound at 1 h, 200 ng/mL ([3]; pooled plasma, C118 200 ng/mL): 0.077 ± 0.008
- fraction unbound at 1 h, 2000 ng/mL ([3]; pooled plasma, C118 2000 ng/mL): 0.065 ± 0.003
- fraction unbound at 1 h, 20000 ng/mL [3, 11]: 0.055 ± 0.001
- concentration at 2 min ([4]; intravenous, dogs, i.v. C118P 1 mg/kg, n = 6): 252 ± 70.5 ng/mL
- concentration at 2 min ([4]; intravenous, dogs, i.v. C118P 3 mg/kg, n = 6): 861 ± 259 ng/mL
- concentration at 2 min ([4]; intravenous, dogs, i.v. C118P 6 mg/kg, n = 6): 1700 ± 509 ng/mL
- AUC(0-inf) [4, 8]: 214 ± 79 ng·h/mL
- half-life [4, 8]: 29.4 ± 10.8 min
- AUC(0-inf) [4, 9]: 910 ± 295 ng·h/mL
- half-life [4, 9]: 63 ± 16.2 min
- AUC(0-inf) [4, 10]: 1830 ± 320 ng·h/mL
- half-life [4, 10]: 50.4 ± 15 min
- clearance ([4]; in vivo, compared with extrapolated CLH, read-out: Observed CL): 54 mL/min/kg
Compound: COc1cc(OC)cc(-c2nc[nH]c2-c2ccc(OC)c(O)c2)c1 [C118]
